# Measured values: patent US12599137B2, “Composition for the drying of Tillandsia sp” (priority 2021, dated 2026)
# Tested on: Tillandsia sp
# Assay: Sampler of 49 cells, each with one specimen of each Tillandsia species, photographic follow-up every 5 days for 30 days
# Assay type: in vivo, Tillandsia aeranthos and Tillandsia recurvata
# Source text: Next, we proceeded to form a sampler consisting of a base on which a series of wooden slats separated at parallel intervals were placed, to which perpendicular slats were crossed, achieving a plurality of cells for a total of 49 flat cells. One specimen of Tillandsia aeranthos and one of Tillandsia recurvata were placed inside each cell. Each box was designated with a sequential number from No. 1 to No. 49 and a photographic follow-up was taken every 5 days for a total of 30 days.
Compound,"dehydration result of Tillandsia sp, summary in words (conclusions on sampler box tests)","optimum concentration of the active ingredient in water (from Examples 3 to 7, FIG. 1) [g/mL]"
Cc1c(C(=O)O)c(O)cc2c1C(=O)c1c(O)c([C@@H]3O[C@H](CO)[C@@H](O)[C@H](O)[C@H]3O)c(O)c(O)c1C2=O [carminic acid],does not dehydrate,–
O=C([O-])O.[Na+] [sodium bicarbonate],–,0.07
